In publication PMC7034070, “Synthesis, anti-inflammatory, cytotoxic, and COX-1/2 inhibitory activities of cyclic imides bearing 3-benzenesulfonamide, oxime, and β-phenylalanine scaffolds: a molecular docking study” (Journal of Enzyme Inhibition and Medicinal Chemistry, 2020):
pIC50: −log10 of the molar value. Several values for one entry are separate records, joined by “and”; a condition that tells them apart may be missing. Equal values may be shown once.

Key:
[1] = target: T1, COX-1 (Ovis aries, UniProt P05979); assay: colorimetric COX (ovine) inhibitor screening assay kit; assay type: biochemical; conditions: ovine COX-1, mean of two determinations
T1 construct: purchased Cayman Chemicals Inc., Ann Arbour, MI
T1 sequence (P05979 25-600): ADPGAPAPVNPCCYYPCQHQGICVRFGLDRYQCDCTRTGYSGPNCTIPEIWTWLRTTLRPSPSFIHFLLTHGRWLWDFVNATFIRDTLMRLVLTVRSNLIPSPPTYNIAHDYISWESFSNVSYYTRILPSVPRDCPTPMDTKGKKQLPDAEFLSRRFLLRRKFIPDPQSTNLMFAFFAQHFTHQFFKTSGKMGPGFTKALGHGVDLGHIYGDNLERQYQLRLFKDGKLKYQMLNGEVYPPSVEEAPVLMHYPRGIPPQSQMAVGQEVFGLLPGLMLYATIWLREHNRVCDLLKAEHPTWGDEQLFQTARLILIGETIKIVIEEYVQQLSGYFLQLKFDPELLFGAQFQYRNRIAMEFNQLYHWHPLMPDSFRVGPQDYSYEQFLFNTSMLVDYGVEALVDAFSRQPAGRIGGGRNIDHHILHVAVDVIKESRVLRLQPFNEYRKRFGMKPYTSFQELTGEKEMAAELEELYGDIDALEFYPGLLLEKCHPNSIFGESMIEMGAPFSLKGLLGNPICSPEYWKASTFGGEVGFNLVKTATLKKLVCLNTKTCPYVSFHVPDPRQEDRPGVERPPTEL
Source text: (§1) To determine the relative ability of the test compounds and reference drugs to inhibit COX-1/COX-2 isozymes, we used the colorimetric COX (ovine) inhibitor screening assay kit (Cayman Chemicals Inc., Ann Arbour, MI), according to the manufacturer’s instructions[3]^,[10]^,[11]^,[20].

[2] = target: T2, COX-2 (Ovis aries, UniProt P79208); assay: as above; assay type: biochemical; conditions: for SI, selectivity index (COX-1 IC50/COX-2 IC50): ovine COX-1/COX-2; for pIC50: ovine COX-2, mean of two determinations
T2 construct: purchased Cayman Chemicals Inc., Ann Arbour, MI
T2 sequence (P79208 17-603): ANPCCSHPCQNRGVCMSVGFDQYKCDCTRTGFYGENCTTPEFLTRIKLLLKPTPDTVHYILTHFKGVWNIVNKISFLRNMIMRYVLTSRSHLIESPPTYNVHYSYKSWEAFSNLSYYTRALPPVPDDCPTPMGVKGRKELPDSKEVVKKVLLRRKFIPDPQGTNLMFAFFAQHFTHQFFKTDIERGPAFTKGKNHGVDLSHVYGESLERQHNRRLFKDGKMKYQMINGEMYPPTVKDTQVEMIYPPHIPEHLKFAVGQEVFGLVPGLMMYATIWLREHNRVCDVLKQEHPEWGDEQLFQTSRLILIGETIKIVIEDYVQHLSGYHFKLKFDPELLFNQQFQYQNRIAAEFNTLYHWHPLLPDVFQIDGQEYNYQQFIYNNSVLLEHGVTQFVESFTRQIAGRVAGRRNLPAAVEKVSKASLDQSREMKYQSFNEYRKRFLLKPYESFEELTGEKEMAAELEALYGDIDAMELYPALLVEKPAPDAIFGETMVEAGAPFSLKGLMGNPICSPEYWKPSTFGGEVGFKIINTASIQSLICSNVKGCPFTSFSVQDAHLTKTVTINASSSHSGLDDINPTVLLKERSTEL
Source text: as §1

[3] = system: carrageenan induced rat paw oedema; assay: rat carrageenan-induced foot paw oedema model; assay type: in vivo; conditions: for Mean % increase in paw weight ± SEM / % Inhibition of paw oedema from control group: 2 h after carrageenan; for Mean % increase in paw weight ± SEM: control group 165.6 ± 1.6; for % Inhibition of paw oedema from control group: single dose screen (Table 1); for ED50: from three graded doses (45, 65, 80 mg/kg)
Description: Anti-inflammatory assessment of the newly synthesised compounds was carried out using an in vivo rat carrageenan-induced foot paw oedema model, as reported previously[16]^,[17].

[4] = system: mice; assay: Ulcerogenicity measurement; assay type: in vivo; conditions: for Average number of ulcers / Mean sum of lengths of elongated ulcer: mice; for Mean sum of lengths of elongated ulcer: ± SEM; for level of ulcerogenic activity (in words): relative to diclofenac and celecoxib
Description: Ulcerogenicity was evaluated according to a previously reported method[6]^a,[17]^,[18]. The number and total length of the ulcers for each animal were measured and their averages were calculated and used as the ulcer indices.

SMILES | pIC50 [1] | SI, selectivity index (COX-1 IC50/COX-2 IC50) [2] | pIC50 [2] | melting point | Mean % increase in paw weight ± SEM [3] | % Inhibition of paw oedema from control group [3] | Average number of ulcers [4] | Mean sum of lengths of elongated ulcer [4] | level of ulcerogenic activity (in words) [4] | Percentage inhibition of paw oedema from control group ([3]; dose 45 mg/kg) | Percentage inhibition of paw oedema from control group ([3]; dose 65 mg/kg) | Percentage inhibition of paw oedema from control group ([3]; dose 80 mg/kg) | ED50 [3] | % Inhibition of paw oedema from control group ([3]; listed as celecoxib)
NS(=O)(=O)c1cccc(N2C(=O)c3cccc4cccc(c34)C2=O)c1 [Compound 10, 3-(1,3-Dioxo-1H-benzo[de]isoquinolin-2(3H)-yl)benzenesulfonamide] | < 4.30 | >14.3 | 5.46 | 241 to 243 °C | 93.7 ± 0.4% | 49.2% and 49.2 ± 0.6% |  |  |  |  |  |  |  | 
C/C(=N/O)c1ccc(N2C(=O)c3ccccc3C2=O)cc1 [Compound 13] | < 4.30 | >312.5 | 6.80 |  | 36.2 ± 0.2% | 80.4% and 80.4 ± 0.7% | 5 | 2.1 ± 0.23 mm | ulcerogenic level similar to celecoxib and less than that of diclofenac | 67.9% | 80.4% | 91.1% | 37.5 mg/kg | 
Cc1ccc(-c2cc(C(F)(F)F)nn2-c2ccc(S(N)(=O)=O)cc2)cc1 [Celecoxib, 4-[5-(4-methylphenyl)-3-(trifluoromethyl)-1H-pyrazol-1-yl]benzenesulfonamide, reference compound] |  |  |  |  | 27.3 ± 0.4% | 85.6 ± 0.4% | 5 | 5.8 ± 0.77 mm |  | 69.8% | 85.6% | 93.5% | 34.1 mg/kg | 85.6%
C/C(=N/O)c1ccc(N2C(=O)c3c(Cl)c(Cl)c(Cl)c(Cl)c3C2=O)cc1 [Compound 17] |  |  |  |  | 135.6 ± 0.8% | 25.1% and 25.1 ± 0.6% |  |  |  |  |  |  |  | 
C/C(=N/O)c1ccc(N2C(=O)c3cc(Cl)c(Cl)cc3C2=O)cc1 [Compound 16] |  |  |  |  | 115.3 ± 1.2% | 39.6% and 39.6 ± 0.4% |  |  |  |  |  |  |  | 
C/C(=N/O)c1ccc(N2C(=O)C3CC=CCC3C2=O)cc1 (stereo not drawn) [Compound 12] | < 4.30 | >312.5 | 6.80 |  | 37.5 ± 0.5% | 79.7% and 79.7 ± 0.4% | 5 | 2.4 ± 0.13 mm | ulcerogenic level similar to celecoxib and less than that of diclofenac | 65.3% | 79.7% | 87.4% | 39.2 mg/kg | 
NS(=O)(=O)c1cccc(N2C(=O)c3cc(Cl)c(Cl)cc3C2=O)c1 [Compound 7, 3-(5,6-Dichloro-1,3-dioxoisoindolin-2-yl)benzenesulfonamide] |  |  |  | 256 to 258 °C | 129.7 ± 0.9% | 29.7% and 29.7 ± 0.2% |  |  |  |  |  |  |  | 
O=C(O)Cc1ccccc1Nc1c(Cl)cccc1Cl [Diclofenac, reference compound] |  |  |  |  | 30.1 ± 0.3% | 83.4% and 83.4 ± 0.5% | 10 | 7.6 ± 0.89 mm |  |  |  |  |  | 
NS(=O)(=O)c1cccc(N2C(=O)c3ccc([N+](=O)[O-])cc3C2=O)c1 [Compound 9] | < 4.30 | >333.3 | 6.82 |  | 35.6 ± 0.1% | 80.9% and 80.9 ± 0.9% | 4 | 1.7 ± 0.21 mm | very low levels of ulcerogenic activity | 69.8% | 80.9% | 90.5% | 37 mg/kg | 

More lines, main results first:

pIC50 [1] | SI, selectivity index (COX-1 IC50/COX-2 IC50) [2] | pIC50 [2] | melting point | SMILES | Mean % increase in paw weight ± SEM [3] | % Inhibition of paw oedema from control group [3] | Average number of ulcers [4] | Mean sum of lengths of elongated ulcer [4] | level of ulcerogenic activity (in words) [4] | Percentage inhibition of paw oedema from control group ([3]; dose 45 mg/kg) | Percentage inhibition of paw oedema from control group ([3]; dose 65 mg/kg) | Percentage inhibition of paw oedema from control group ([3]; dose 80 mg/kg) | ED50 [3] | % Inhibition of paw oedema from control group ([3]; listed as celecoxib)
4.74 | 0.61 | 4.52 | 191 to 193 °C | O=C(O)CC(c1ccccc1)N1C(=O)c2ccc([N+](=O)[O-])cc2C1=O (stereo not drawn) [Compound 28, 3-(5-Nitro-1,3-dioxoisoindolin-2-yl)-3-phenylpropanoic acid] | 100.9 ± 0.8% | 42.5% and 42.5 ± 0.2% |  |  |  |  |  |  |  | 
4.61 | 0.68 | 4.44 |  | Cc1ccc2c(c1)C(=O)N(C(CC(=O)O)c1ccccc1)C2=O (stereo not drawn) [Compound 24] | 123.4 ± 0.9% | 33.1 ± 0.4% |  |  |  |  |  |  |  | 
4.94 | 0.46 | 4.60 |  | O=C(O)CC(c1ccccc1)N1C(=O)C2CC=CCC2C1=O (stereo not drawn) [Compound 22] | 69.1 ± 0.5% | 62.9 ± 0.4% |  |  |  |  |  |  |  | 
4.78 | 0.55 | 4.52 | 259 to 261 °C | O=C(O)CC(c1ccccc1)N1C(=O)CCC1=O (stereo not drawn) [Compound 21, 3-(2,5-Dioxopyrrolidin-1-yl)-3-phenylpropanoic acid] | 98.9 ± 0.6% | 46.4% and 46.4 ± 0.3% |  |  |  |  |  |  |  | 
4.96 | 0.49 | 4.65 |  | O=C(O)CC(c1ccccc1)N1C(=O)c2ccccc2C1=O (stereo not drawn) [Compound 23] | 65.6 ± 0.3% | 64.4% and 64.4 ± 0.7% |  |  |  |  |  |  |  | 
< 4.30 | >62.5 | 6.10 |  | C/C(=N/O)c1ccc(N2C(=O)c3ccc(C)cc3C2=O)cc1 [Compound 14] | 70.8 ± 0.6% | 61.6% and 61.6 ± 0.5% |  |  |  |  |  |  |  | 
 |  |  | 151 to 153 °C | O=C(O)CC(c1ccccc1)N1C(=O)c2cccc3cccc(c23)C1=O (stereo not drawn) [Compound 29, 3-(1,3-Dioxo-1H-benzo[de]isoquinolin-2(3H)-yl)-3-phenylpropanoic acid] | 130.8 ± 0.7% | 27.0% and 27.0 ± 0.1% |  |  |  |  |  |  |  | 
 |  |  | 205 to 207 °C | O=C(O)CC(c1ccccc1)N1C(=O)c2cc(Cl)c(Cl)cc2C1=O (stereo not drawn) [Compound 26, 3-(5,6-Dichloro-1,3-dioxoisoindolin-2-yl)-3-phenylpropanoic acid] | 136.3 ± 0.8% | 24.4 ± 0.3% |  |  |  |  |  |  |  | 
 |  |  | 119 to 121 °C | CC(C)(C)c1ccc2c(c1)C(=O)N(C(CC(=O)O)c1ccccc1)C2=O (stereo not drawn) [Compound 25, 3-(5-(tert-Butyl)-1,3-dioxoisoindolin-2-yl)-3-phenylpropanoic acid] | 129.0 ± 1.1% | 29.6 ± 0.7% |  |  |  |  |  |  |  | 
 |  |  | 280 to 282 °C | O=C(O)CC(c1ccccc1)N1C(=O)c2c(Cl)c(Cl)c(Cl)c(Cl)c2C1=O (stereo not drawn) [Compound 27, 3-Phenyl-3-(4,5,6,7-tetrachloro-1,3-dioxoisoindolin-2-yl)propanoic acid] | 141.6 ± 1.0% | 21.2 ± 0.9% |  |  |  |  |  |  |  | 
< 4.30 | >14.3 | 5.46 |  | C/C(=N/O)c1ccc(N2C(=O)c3ccc(C(C)(C)C)cc3C2=O)cc1 [Compound 15] | 95.7 ± 0.9% | 48.1% and 48.1 ± 0.2% |  |  |  |  |  |  |  | 
